In assay [1] the target is T1, BRD4 BD2 (Homo sapiens (Human), UniProt O60885). The experiment in a line: FP competitive binding assay using Cpd. No. 350 as the probe.
Description: (§5) Fluorescence Polarization (FP) competitive binding studies (see above) were carried out using the FAM labeled fluorescent probe Cpd. No. 350 to determine binding affinities of representative compounds to both BD1 and BD2 of BRD2, BRD3, and BRD4 proteins. Equilibrium dissociation constants (Id) values of Cpd. No. 350 to these six proteins were determined from protein saturation experiments by monitoring the total fluorescence polarization of mixtures composed with the fluorescent probe at a fixed concentration and proteins with increasing concentrations up to full saturation. Serial dilutions of testing protein were mixed with Cpd. No. 350 to a final volume of 200 μl in the assay buffer. […] Plates were incubated at room temperature for 30 minutes with gentle shaking to assure equilibrium. […] Kd values of Cpd.
(§6) The IC50 and Ki values of compounds were determined in a competitive binding experiment as described above. […] FP values were measured as described above. IC50 values were determined by nonlinear regression fitting of the competition curves.
The target in the next assay is BRD3 BD1 (Homo sapiens (Human), UniProt Q15059). The assay is described as above.
For another assay, the system named is AML-2. In words: Cell growth inhibition in leukemia cell line. In kind it is cell-based. Here is the method:
(§1) The effect of representative BET bromodomain inhibitors on cell viability was determined in a 4-day proliferation assay. Cells were maintained in the appropriate culture medium with 10% FBS at 37° C. and an atmosphere of 5% CO2. All the cell lines were used within three months of thawing fresh vials.
(§2) Cells were seeded in 96-well flat bottom (Corning COSTAR, Corning, N.Y., cat#3595) or white opaque cell culture plates (BD Falcon, cat#353296) at a density of 3,000-10,000 cells/well in 75 μl of culture medium. Compounds were serially diluted in the appropriate medium, and 75 μl of the diluted compounds were added to the appropriate wells of the cell plate. After the addition of compounds, the cells were incubated at 37° C. in an atmosphere of 5% CO2 for 4 days. Cell viability was determined using the CellTiter-Glo® Luminescent Cell Viability Assay Kit (Promega, Madison, Wis.) for MOLM-13 cells and WST (2-(2-methoxy-4-nitrophenyl)-3-(4-nitrophenyl)-5-(2,4-disulfophenyl)-2H-tetrazolium, monosodium salt) Cell Counting-8 Kit (Dojindo Molecular Technologies, Inc., Rockville, Md.) for MDA-MB-436 cells according to the manufacturers' instructions.

The target of another assay is BRD4 BD1 (Homo sapiens (Human), UniProt O60885). In words: FP competitive binding assay using Cpd. No. 350 as the probe.
A further assay relates to MV4;11. In words: Cell growth inhibition in leukemia cell line. In kind it is cell-based. The conditions noted are these: Homo sapiens, MV4-11, cell growth inhibition.
The test system of assay [2] is leukemia MOLM-13 cell line. In words: 4-day cell viability assay, CellTiter-Glo. It counts as cell-based. The conditions noted are these: 4 days, read-out: Cell Growth Inhibition (IC50 (nM)) MOLM-13 Cell Line (CellTiter-Glo assay). Here is the method: as §1, §2
For the CellTiter-Glo assay, 100 μl of CellTiter-Glo® Reagent was added to each well, and then the plates were incubated at room temperature for 10-20 minutes. The luminescent signal was measured using a Tecan Infinite M1000 multimode microplate reader (Tecan, Morrisville, N.C.). The readings were normalized to the DMSO-treated cells and the IC50 was calculated by nonlinear regression (four parameters sigmoid fitted with variable slope, least squares fit, and no constraint) analysis using the GraphPad Prism 5 software.
Background: Cellular ATP, detected with luciferase, serves as a proxy for viable cell number.

The target of assay [3] is T2, BRD2 BD2 (Homo sapiens (Human), UniProt P25440). The experiment in a line: FP competitive binding assay using Cpd. No. 350 as the probe.
T2 sequence (P25440 344-453): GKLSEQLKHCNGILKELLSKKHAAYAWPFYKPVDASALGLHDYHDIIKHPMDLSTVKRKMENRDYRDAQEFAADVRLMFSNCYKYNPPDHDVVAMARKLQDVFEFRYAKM
Description: as §5, §6
Another assay concerns the target BRD3 BD2 (Homo sapiens (Human), UniProt Q15059). The assay is described as above.
Another assay has as its target BRD2 BD1 (Homo sapiens (Human), UniProt P25440). The assay is described as above.
The test system of another assay is K562. In words: Cell growth inhibition in leukemia cell line. It counts as cell-based. The conditions noted are these: Homo sapiens.
The target of assay [4] is T2, BRD2 BD2. The experiment in a line: FP competitive binding assay (BRD-1F probe). The conditions noted are these: for IC50: BRD-1F probe 5 nM, protein 200 nM; for Ki: BRD-1F probe, calculated from IC50. Here is the method: (§3) The FAM labeled fluorescent probe (BRD-1F) was synthesized based on a known small-molecule BET bromodomain inhibitor. […] Final BRD-1F concentration was 5 nM. Plates were incubated at room temperature for 1-2 hours with gentle shaking to assure equilibrium.
(§4) Final probe concentration is 5 nM in all assays. […] FP values were measured as described above.

Assay [5] addresses T1, BRD4 BD2. The experiment in a line: FP competitive binding assay (BRD-1F probe). The conditions noted are these: for IC50: BRD-1F probe 5 nM, protein 200 nM; for Ki: BRD-1F probe, calculated from IC50. Here is the method:
as §3, §4

The test system of another assay is prostate VCaP cell line. In words: Cell growth inhibition, Cell TiterGLO, 4 days. In kind it is cell-based. The conditions noted are these: treated 4 days, read-out: VCaP cells (IC50 (nM)).
Assay [6] concerns breast cancer MDA-MB-436 cell line. In words: 4-day cell viability assay, WST. The conditions noted are these: 4 days, read-out: Cell Growth Inhibition (IC50 (nM)) MDA-436 Cell Line (WST assay). In kind it is cell-based. Here is the method:
as §1, §2
For the WST assay, WST-8 reagent was added to each well at a final concentration of 10% (v/v), and then the plates were incubated at 37° C. for 1-2 hours for color development. The absorbance was measured at 450 nm using a SPECTRAmax PLUS plate reader (Molecular Devices, Sunnyvale, Calif.). The readings were normalized to the DMSO-treated cells and the half maximal inhibitory concentration (IC50) was calculated by nonlinear regression (four parameters sigmoid fitted with variable slope, least squares fit, and no constraint) analysis using the GraphPad Prism 5 software (GraphPad Software, La Jolla, Calif.).

[7] abbreviates: read-out: BRD4 BD2 Ki, FP, Cpd. No. 350 probe […].
The mark [8] stands for this setting: read-out: BRD3 BD1 Ki, FP, Cpd. No. 350 probe […].
Where [9] appears, read: read-out: BRD4 BD1 Ki, FP, Cpd. No. 350 probe […].
The mark [10] stands for this setting: read-out: BRD2 BD2 Ki, FP, Cpd. No. 350 probe […].
The mark [11] stands for this setting: read-out: BRD3 BD2 Ki, FP, Cpd. No. 350 probe […].
Setting [12] is: read-out: BRD2 BD1 Ki, FP, Cpd. No. 350 probe […].

As a reminder, the Ki is a dissociation constant, usually derived from enzyme kinetics or from competition with a known ligand. As usually defined, the IC50 is the concentration needed to halve the response being measured.

Like-named read-outs stand apart in the source and are kept apart here.

Chain of BRD2 BD1 (P25440 74-180): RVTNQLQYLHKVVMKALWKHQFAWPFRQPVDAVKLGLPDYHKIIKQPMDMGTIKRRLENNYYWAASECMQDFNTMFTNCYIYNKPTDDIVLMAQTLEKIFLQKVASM
Chain of BRD3 BD1 (Q15059 34-140): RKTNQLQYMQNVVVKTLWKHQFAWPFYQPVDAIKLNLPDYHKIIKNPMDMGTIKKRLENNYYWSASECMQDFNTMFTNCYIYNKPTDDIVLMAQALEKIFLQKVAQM
Chain of BRD3 BD2 (Q15059 306-415): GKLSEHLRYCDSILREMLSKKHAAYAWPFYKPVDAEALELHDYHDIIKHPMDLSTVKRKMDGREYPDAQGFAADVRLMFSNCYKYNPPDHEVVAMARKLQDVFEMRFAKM
Description for BRD2 BD1: as §5, §6
Description for BRD3 BD1: as §5, §6
Description for BRD3 BD2: as §5, §6
Description for BRD4 BD1: as §5, §6

As to `COc1cc2c(cc1-c1c(C)noc1C)[nH]c1ccnc(-c3cn[nH]c3)c12`, the Ki on BRD4 BD2 [1] (setting [7]) was 201 ± 5 nM; on BRD3 BD1 (setting [8]), 151 ± 20 nM; at BRD4 BD1 (setting [9]), 247 ± 29 nM; on BRD2 BD2 [3] (setting [10]), 89.7 ± 6.4 nM; on BRD3 BD2 (setting [11]), 48.7 ± 3.3 nM; at BRD2 BD1 (setting [12]) it was 138 ± 8 nM. For the same molecule, the figures for the Ki on BRD2 BD2 [4] and at BRD4 BD2 [5] were 42.3 ± 32 nM and 114 ± 87 nM, respectively. The IC50 with AML-2 was 217 ± 61 nM; in the assay with MV4;11, 1070 ± 195 nM; in assay [2] (Homo sapiens, MOLM-13, 96 h), 1040 ± 158 nM; with K562, over 2000 nM; on BRD2 BD2 [4], 286 ± 125 nM; on BRD4 BD2 [5] it was 608 ± 244 nM.

Consider `COc1cc2c(cc1-c1c(C)noc1C)[nH]c1ccnc(-c3ccccc3)c12`, for which the IC50 at BRD2 BD2 [4] was found to be 255 ± 114 nM; at BRD4 BD2 [5], 514 nM. Besides, the results for the Ki on BRD2 BD2 [4] and at BRD4 BD2 [5] were 34.9 ± 21.2 nM and 83.4 nM, respectively.

Turning to `COc1cc2c(cc1-c1c(C)noc1C)[nH]c1ccnc(-c3cccnc3)c12`, at BRD2 BD2 [4], the IC50 was determined as 349 nM and the Ki is 57.4 nM. In addition, on BRD4 BD2 [5], the IC50 was determined as 873 nM and the Ki was 232 nM.

Take `COc1cc2c(cc1-c1c(C)noc1C)[nH]c1ccncc12` [Cpd. No. 1, 4-(8-methoxy-5H-pyrido[4,3-b]indol-7-yl)-3,5-dimethylisoxazole]: the Ki came to 70.1 ± 2 nM on BRD4 BD2 [1]; 14.7 ± 1 nM on BRD3 BD1; 47.8 ± 1 nM at BRD4 BD1; 34.5 ± 2.1 nM at BRD2 BD2 [3]; 14.3 ± 0.5 nM at BRD3 BD2; 31.6 ± 8.2 nM at BRD2 BD1. The IC50 in the assay with AML-2 is 148 ± 64 nM; with MV4;11 it was 178 ± 114 nM; in [2] (Homo sapiens, MOLM-13, 96 h), 550 ± 303 nM; with K562, over 2000 nM.

Turning to `COc1cc2c(cc1-c1c(C)noc1C)[nH]c1ccnc(-c3c(C4CC4)n[nH]c3C)c12` [Cpd. No. 24, 4-(1-(3-cyclopropyl-5-methyl-1H-pyrazol-4-yl)-8-methoxy-5H-pyrido[4,3-b]indol-7-yl)-3,5-dimethylisoxazole], the Ki on BRD4 BD2 [1] came to 134 ± 42 nM; on BRD3 BD1 it was 38.2 ± 1 nM; on BRD4 BD1 it was 116 ± 5 nM; at BRD2 BD2 [3], 92.1 ± 3.3 nM; at BRD3 BD2, 50.9 ± 5.8 nM; on BRD2 BD1, 58.4 ± 1 nM. Moreover, the IC50 was 173 ± 89 nM with AML-2; 83 ± 41 nM in the assay on MV4;11; 280 ± 35 nM in assay [2] (Homo sapiens, MOLM-13, 96 h); over 2000 nM with K562.

Turning to `COc1cc2c(cc1-c1c(C)n[nH]c1C)[nH]c1ccnc(-c3c(C)n[nH]c3C)c12` [Cpd. No. 34, 1,7-bis(3,5-dimethyl-1H-pyrazol-4-yl)-8-methoxy-5H-pyrido[4,3-b]indole], at BRD2 BD2 [4], the IC50 came out at 3200 nM and the Ki was 1200 nM. On BRD4 BD2 [5], the IC50 amounted to 3670 nM and the Ki was 775 nM.

For the molecule `COc1cc2c(cc1-c1c(C)noc1C)[nH]c1nc(C)nc(-c3ccnc4ccccc34)c12` [Cpd. No. 73], the Ki at BRD4 BD2 [1] (setting [7]) was 7.8 nM; on BRD3 BD1 (setting [8]), 10.2 nM; at BRD4 BD1 (setting [9]) it was 35.3 nM; on BRD2 BD2 [3] (setting [10]), 8.7 nM; on BRD3 BD2 (setting [11]), 2.6 nM; on BRD2 BD1 (setting [12]), 15.5 nM. Further, the IC50 in the assay with prostate VCaP cell line (Homo sapiens, VCaP, 96 h) was found to be 156 nM.

For the molecule `COc1cc2c(cc1-c1c(C)noc1C)[nH]c1nc(C)nc(-c3ccnc4ccc(Cl)cc34)c12` [Cpd. No. 90], the IC50 in the assay with prostate VCaP cell line (Homo sapiens, VCaP, 96 h) came out at 20 nM.

With `COc1cc2c(cc1-c1c(C)noc1C)[nH]c1nc(C)nc(-c3cc(NCCN(C)C)nc4ccccc34)c12` [Cpd. No. 101], in the assay with prostate VCaP cell line (Homo sapiens, VCaP, 96 h), the IC50 was found to be 25 nM.

With `COc1cc2c(cc1-c1c(C)noc1C)[nH]c1nc(C)nc(-c3cc(C(=O)NC4CCN(C5COC5)CC4)[nH]c3C(C)C)c12` [Cpd. No. 213, 4-(7-(3,5-Dimethylisoxazol-4-yl)-6-methoxy-2-methyl-9H-pyrimido[4,5-b]indol-4-yl)-5-isopropyl-N-(1-(oxetan-3-yl)piperidin-4-yl)-1H-pyrrole-2-carboxamide], the Ki at BRD4 BD2 [1] (setting [7]) turned out to be 6.5 nM; at BRD3 BD1 (setting [8]) it was 14 nM; at BRD4 BD1 (setting [9]), 20.8 nM; at BRD2 BD2 [3] (setting [10]), 7.1 nM; at BRD3 BD2 (setting [11]), 2.2 nM; at BRD2 BD1 (setting [12]), 10.5 nM. Moreover, the IC50 is 48 nM in assay [2] (Homo sapiens, MOLM-13, 96 h) and 225 nM in [6] (Homo sapiens, MDA-MB-436, 96 h).

`COc1cc2c(cc1-c1c(C)noc1C)[nH]c1ccnc(-c3c(C)nn(-c4ccccc4)c3C)c12` [Cpd. No. 352, 4-(1-(3,5-dimethyl-1-phenyl-1H-pyrazol-4-yl)-8-methoxy-5H-pyrido[4,3-b]indol-7-yl)-3,5-dimethylisoxazole]: the Ki was found to be 98.1 ± 6.1 nM on BRD4 BD2 [1] (setting [7]); 31.8 ± 1.5 nM on BRD3 BD1 (setting [8]); 103 ± 3 nM on BRD4 BD1 (setting [9]); 52.9 ± 2.7 nM at BRD2 BD2 [3] (setting [10]); 35 ± 2 nM on BRD3 BD2 (setting [11]); 62.6 ± 9 nM on BRD2 BD1 (setting [12]). The IC50 is 751 nM in [2] and 724 nM in assay [6].

As for `COc1cc2c(cc1-c1c(C)noc1C)ncc1[nH]c(=O)n([C@H](C)c3ccccn3)c12` [I-BET151, reference compound], in the assay with prostate VCaP cell line (Homo sapiens, VCaP, 96 h), the IC50 was determined as 862 nM.

For `CCNC(=O)C[C@@H]1N=C(c2ccc(Cl)cc2)c2cc(OC)ccc2-n2c(C)nnc21` [I-BET762, reference compound], the IC50 with prostate VCaP cell line (Homo sapiens, VCaP, 96 h) was 500 nM.

For the molecule `Cc1sc2c(c1C)C(c1ccc(Cl)cc1)=N[C@@H](CC(=O)OC(C)(C)C)c1nnc(C)n1-2` [JQ1, reference compound], in the assay on prostate VCaP cell line, the IC50 turned out to be 48 nM.

For the molecule `COc1cc2c(cc1-c1c(C)noc1C)[nH]c1ccncc12` [RX-7], the Ki is 824 ± 25 nM on BRD4 BD2 [1] (setting [7]); 730 ± 146 nM at BRD3 BD1 (setting [8]); 1640 ± 71 nM at BRD4 BD1 (setting [9]); 498 ± 11 nM at BRD2 BD2 [3] (setting [10]); 241 ± 6 nM at BRD3 BD2 (setting [11]); 650 ± 125 nM on BRD2 BD1 (setting [12]). Moreover, the Ki at BRD2 BD2 [4] is 366 ± 82 nM; on BRD4 BD2 [5], 850 nM. Further, the IC50 at BRD2 BD2 [4] stood at 1350 ± 212 nM; at BRD4 BD2 [5] it was 2900 nM.

These data come from patent US9675697B2 (THE REGENTS OF THE UNIVERSITY OF MICHIGAN, priority 2013, dated 2017).
